The source of these data is patent US8691824B2, “Certain kynurenine-3-monooxygenase inhibitors, pharmaceutical compositions, and methods of use thereof” (CHDI Foundation, Inc., priority 2008, dated 2014).

In this assay the target is T1, KMO mouse enzyme (Mus musculus, UniProt Q91WN4).
T1 construct: KMO enzyme prepared at Evotec from mouse liver (4-6 weeks old) via mitochondria isolation; from tissue; host or cells: mouse liver (4-6 weeks old), mitochondria isolation
T1 sequence (Q91WN4 whole entry): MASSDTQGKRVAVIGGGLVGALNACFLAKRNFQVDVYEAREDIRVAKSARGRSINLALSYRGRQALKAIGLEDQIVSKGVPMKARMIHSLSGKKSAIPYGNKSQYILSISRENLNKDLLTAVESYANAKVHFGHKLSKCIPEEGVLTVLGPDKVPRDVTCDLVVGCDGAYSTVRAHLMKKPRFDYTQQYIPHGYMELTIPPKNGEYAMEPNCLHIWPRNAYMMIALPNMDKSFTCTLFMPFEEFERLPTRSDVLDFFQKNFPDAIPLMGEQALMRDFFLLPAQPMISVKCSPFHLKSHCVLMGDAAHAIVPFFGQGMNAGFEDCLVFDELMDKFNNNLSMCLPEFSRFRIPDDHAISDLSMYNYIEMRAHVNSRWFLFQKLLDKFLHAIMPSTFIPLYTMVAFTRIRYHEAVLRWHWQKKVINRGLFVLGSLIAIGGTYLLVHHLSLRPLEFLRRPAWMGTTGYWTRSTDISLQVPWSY
Put plainly: L-Kynurenine hydroxylation to 3OH-KYN by LC/MS, mouse liver mitochondrial KMO. The following applies: compound at 10 μM, read-out: INH.Mouse @ 10 μM. The assay is classed as biochemical. As to the method: A method of monitoring L-Kynurenine (KYN) hydroxylation to form 3-Hydroxy-Kynurenine (3OH-KYN) by LC/MS is described. Product is quantified by multiple reaction monitoring (MRM method).
• Compound: Stock concentrations: 10 mM in 100% DMSO • Enzyme: KMO enzyme prepared at Evotec from mouse liver (4-6 weeks old) via mitochondria isolation as described in the literature • Substrate: L-Kynurenine (Sigma: Cat# K3750, stock concentration: 10 mM in 100 mM potassium phosphate buffer, pH 7.4) Assay Conditions: • Buffer: 100 mM potassium phosphate, pH 7.4, 200 μM NADPH, 0.4 U/ml G6P-DH (Glucose 6-phosphate Dehydrogenase), 3 mM G6P (D-Glucose 6-phosphate) • Assay Volume: 40 μl • Plate Format: 384 well plate, transparent (Matrix) • Read-Out: product (3OH-KYN) quantification using product specific MRM • Reader: LC/MS/MS Assay Protocol: • prepare serial dilution (factor 3) of compound in 100% DMSO (top concentration=10 mM, 100% DMSO) • [8 points: 10 mM; 3.33 mM; 1.11 mM; 0.37 mM; 0.12 mM; 0.04 mM; 0.0137 mM; 0.0045 mM, 0.0015 mM] • prepare […] concentrated solution of each compound concentration (top concentration 300 μM, 3% DMSO) in assay buffer • [concentrations: 300 μM; 100 μM; 33.3 μM; 11.1 μM; 3.70 μM; 1.23 μM; 0.41 μM; 0.137 μM] • prepare substrate (10 mM) at concentration of 1 mM in assay buffer • assay mix: 4 μl compound/well of each concentration+24 μl assaybuffer/well+8 μl KMO mouse enzyme+4 μl 1 mM substrate (final concentration=100 μM) • [final compound top concentration: 30 μM; 0.3% DMSO] • [final compound bottom concentration: 0.0137 μM; 0.3% DMSO] • positive control: 4 μl 50 μM FCE28833 in assay buffer, 0.5% DMSO [final assay concentration=5 μM]+24 μl assaybuffer/well+8 μl KMO mouse enzyme+4 μl 1 mM substrate [final concentration=100 μM] • negative control: 28 μl assay buffer/well+8 μl KMO mouse enzyme+4 μl 1 mM substrate [final concentration=100 μM] • incubate 40 min at RT • add 40 μl/well 10% trichloro acetic acid in water to stop the assay and precipitate protein • centrifuge plate for 3 min at 4000 rpm • product detection by LC/MS (injection of 20 μl/well, 2 fold overfill of the 10 μl sample loop) Data Analysis:
IC50's are calculated using automated fitting algorithm (A+Analysis).
Using procedures similar to those described herein, the following compounds were assayed for activity.
For `Cc1ncc(NC(=O)CC2CON=C2c2ccc(Cl)c(Cl)c2)cn1` (stereo not drawn) [2-[3-(3,4-Dichloro-phenyl)-4,5-dihydro-isoxazol-4-yl]-N-(2-methyl-pyrimidin-5-yl)-acetamide], the inhibition at 10 µM came out at 81.2%.

For `Cc1cc(NC(=O)CC2CON=C2c2ccc(Cl)c(Cl)c2)on1` (stereo not drawn) [2-[3-(3,4-Dichloro-phenyl)-4,5-dihydro-isoxazol-4-yl]-N-(3-methyl-isoxazol-5-yl)-acetamide], the inhibition at 10 µM came to 64%.

Take `O=C(CC1CON=C1c1ccc(Cl)c(Cl)c1)Nc1cccnc1` (stereo not drawn) [2-[3-(3,4-Dichloro-phenyl)-4,5-dihydro-isoxazol-4-yl]-N-pyridin-3-yl-acetamide]: the inhibition at 10 µM amounted to 77.2%.

Turning to `O=C(CC1CON=C1c1ccc(Cl)c(Cl)c1)Nc1cncnc1` (stereo not drawn) [2-[3-(3,4-Dichloro-phenyl)-4,5-dihydro-isoxazol-4-yl]-N-pyrimidin-5-yl-acetamide], the inhibition at 10 µM came out at 82.7%.

Consider `NC(=O)CC1CON=C1c1ccc(Cl)c(Cl)c1` (stereo not drawn) [2-[3-(3,4-Dichloro-phenyl)-4,5-dihydro-isoxazol-4-yl]-acetamide], for which the inhibition at 10 µM turned out to be 60.4%.

As to `O=C(O)CC1CON=C1c1cccc(Cl)c1` (stereo not drawn) [3-(3-Chloro-phenyl)-4,5-dihydro-isoxazol-4-yl]-acetic acid], the inhibition at 10 µM turned out to be 106%.

`COC(=O)CC1CON=C1c1ccc(Cl)c(Cl)c1` (stereo not drawn) [[3-(3,4-Dichloro-phenyl)-4,5-dihydro-isoxazol-4-yl]-acetic acid methyl ester]: the inhibition at 10 µM amounted to 102%.

Regarding `O=C(O)CC1CON=C1c1ccc(Cl)c(Cl)c1` (stereo not drawn) [[3-(3,4-Dichloro-phenyl)-4,5-dihydro-isoxazol-4-yl]-acetic acid], the inhibition at 10 µM came out at 101%.

As for `COC(=O)CC1CC(c2ccc(Cl)c(Cl)c2)=NO1` (stereo not drawn) [[3-(3,4-Dichloro-phenyl)-4,5-dihydro-isoxazol-5-yl]-acetic acid methyl ester], the inhibition at 10 µM is 88.4%.

On to `O=C(O)CC1CC(c2ccc(Cl)c(Cl)c2)=NO1` (stereo not drawn) [[3-(3,4-Dichloro-phenyl)-4,5-dihydro-isoxazol-5-yl]-acetic acid], for which the inhibition at 10 µM is 93.3%.

In the case of `CC1ON=C(c2ccc(Cl)c(Cl)c2)C1CC(=O)O` (stereo not drawn) [[3-(3,4-Dichloro-phenyl)-5-methyl-4,5-dihydro-isoxazol-4-yl]-acetic acid], the inhibition at 10 µM came out at 84.5%.

In the case of `O=C(O)Cc1conc1-c1ccc(Cl)c(Cl)c1` [[3-(3,4-Dichloro-phenyl)-isoxazol-4-yl]-acetic acid], the inhibition at 10 µM amounted to 74.7%.

`CCOC(=O)Cc1cc(-c2ccc(Cl)c(Cl)c2)no1` [[3-(3,4-Dichloro-phenyl)-isoxazol-5-yl]-acetic acid ethyl ester]: the inhibition at 10 µM turned out to be 60.8%.

`COC(=O)Cc1cc(-c2ccc(Cl)c(Cl)c2)no1` [[3-(3,4-Dichloro-phenyl)-isoxazol-5-yl]-acetic acid methyl ester]: the inhibition at 10 µM turned out to be 66.4%.

With `O=C(O)Cc1cc(-c2ccc(Cl)c(Cl)c2)no1` [[3-(3,4-Dichloro-phenyl)-isoxazol-5-yl]-acetic acid], the inhibition at 10 µM was found to be 74.5%.
